Measurements published in US6660752B2, “2,6-Substituted chroman derivatives useful as beta-3 adrenoreceptor agonists” (Bayer Pharmaceuticals Corporation, priority 2001, dated 2003).

These molecules were tested against T1, human beta-3-adrenergic receptor (Homo sapiens, UniProt P13945) (assay: cAMP production (beta-3 agonist activity) in CHO cells stably expressing human beta-3-adrenergic receptor, cAMP SPA). Settings: CHO cells expressing full-length human beta-3-adrenergic receptor, 30 min incubation, 10 μM to 3 nM, read-out: Beta-3 Agonistic Activity: Compounds with EC50 values ≦1 μM.
T1 construct: stably express full-length human beta-3-adrenergic receptor; expressed in transfected cells; host or cells: Chinese hamster ovary (CHO) cells
Format: cell-based
Outline: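 CHO cells stably expressing full-length receptor treated 30 min at 37° C with compounds (10 μM to 3 nM, 3-fold dilutions) in KRP buffer pH 7.4 with […] IBMX and 1% DMSO. Lysed cells assayed for cAMP by SPA; EC50 derived from cAMP concentration-response curves.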

T1 sequence (P13945 whole entry): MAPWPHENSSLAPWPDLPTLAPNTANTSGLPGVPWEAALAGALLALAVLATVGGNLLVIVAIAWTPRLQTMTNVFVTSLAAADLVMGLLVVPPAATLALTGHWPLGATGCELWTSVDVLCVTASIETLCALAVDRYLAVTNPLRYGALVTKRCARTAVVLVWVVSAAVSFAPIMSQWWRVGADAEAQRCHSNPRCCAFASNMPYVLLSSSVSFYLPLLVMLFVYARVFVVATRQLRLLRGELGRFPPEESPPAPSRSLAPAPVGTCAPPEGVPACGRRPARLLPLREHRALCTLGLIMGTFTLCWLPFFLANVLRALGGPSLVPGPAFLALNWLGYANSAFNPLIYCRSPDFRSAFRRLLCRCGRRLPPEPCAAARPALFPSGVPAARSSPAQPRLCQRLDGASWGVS

EC50, ≤ 1000 nM:
O=C(Nc1ccc(F)cc1)NS(=O)(=O)c1ccc(-c2ccc3c(c2)CC[C@H](CNC[C@H](O)c2cccnc2)O3)cc1 [Example 327, 3-((1R)-2-{[((2R)-6-{4-[({[(4-fluorophenyl)amino]carbonyl}amino)sulfonyl]phenyl}-3,4-dihydro-2H-chromen-2-yl)methyl]amino}-1-hydroxyethyl)pyridine]
O=C(Nc1ccccc1)NS(=O)(=O)c1ccc(-c2ccc3c(c2)CC[C@H](CNC[C@H](O)c2cccnc2)O3)cc1 [Example 328, 3-[(1R)-2-({[(2R)-6-(4-{[(anilinocarbonyl)amino]sulfonyl}phenyl)-3,4-dihydro-2H-chromen-2-yl]methyl}amino)-1-hydroxyethyl]pyridine]
O=C(NC1CCCCC1)NS(=O)(=O)c1ccc(-c2ccc3c(c2)CC[C@H](CNC[C@H](O)c2cccnc2)O3)cc1 [Example 329, 3-{(1R)-2-[({(2R)-6-[4-({[(cyclohexylamino)carbonyl]amino}sulfonyl)phenyl]-3,4-dihydro-2H-chromen-2-yl}methyl)amino]-1-hydroxyethyl}pyridine]
Cc1cc(Cl)ccc1NC(=O)NS(=O)(=O)c1ccc(-c2ccc3c(c2)CC[C@H](CNC[C@H](O)c2cccnc2)O3)cc1 [Example 330, 3-((1R)-2-{[((2R)-6-{4-[({[(4-chloro-2-methylphenyl)amino]carbonyl}amino)sulfonyl]phenyl}-3,4-dihydro-2H-chromen-2-yl)methyl]amino}-1-hydroxyethyl)pyridine]
O=C(Nc1ccccc1)NS(=O)(=O)c1cccc(-c2ccc3c(c2)CC[C@H](CNC[C@H](O)c2cccnc2)O3)c1 [Example 332]
O=C(Nc1ccc(F)cc1)NS(=O)(=O)c1cccc(-c2ccc3c(c2)CC[C@H](CNC[C@H](O)c2cccnc2)O3)c1 [Example 333]
COc1ccc(NC(=O)NS(=O)(=O)c2cccc(-c3ccc4c(c3)CC[C@H](CNC[C@H](O)c3cccnc3)O4)c2)cc1 [Example 334]
O=C(Nc1ccc(Cl)cc1)NS(=O)(=O)c1cccc(-c2ccc3c(c2)CC[C@H](CNC[C@H](O)c2cccnc2)O3)c1 [Example 335]
O=C(Nc1ccccc1F)NS(=O)(=O)c1cccc(-c2ccc3c(c2)CC[C@H](CNC[C@H](O)c2cccnc2)O3)c1 [Example 336]
O=C(Nc1cccc(C(F)(F)F)c1)NS(=O)(=O)c1cccc(-c2ccc3c(c2)CC[C@H](CNC[C@H](O)c2cccnc2)O3)c1 [Example 337]
O=C(Nc1cccc(F)c1)NS(=O)(=O)c1ccc(-c2ccc3c(c2)CC[C@H](CNC[C@H](O)c2cccnc2)O3)cc1 [Example 338]
CC(C)NC(=O)NS(=O)(=O)c1ccc(-c2ccc3c(c2)CC[C@H](CNC[C@H](O)c2cccnc2)O3)cc1 [Example 339]
O=C(Nc1ccc(Cl)cc1)NS(=O)(=O)c1ccc(-c2ccc3c(c2)CC[C@H](CNC[C@H](O)c2cccnc2)O3)cc1 [Example 340]
COc1ccc([C@H](O)CNC[C@H]2CCc3cc(-c4ccc(C(=O)O)cc4)ccc3O2)cn1 [Example 343]
O=C(O)c1ccc(-c2ccc3c(c2)CC[C@H](CNC[C@H](O)c2cccc(Cl)c2)O3)cc1 [Example 344, 4-[(2R)-2-({[(2R)-2-(3-chlorophenyl)-2-hydroxyethyl]amino}methyl)-3,4-dihydro-2H-chromen-6-yl]benzoic acid]
O=C(O)c1ccc(-c2ccc3c(c2)CC[C@H](CNC[C@@H](O)c2c(F)ccc(Cl)c2F)O3)cc1 [Example 348]
O=C(O)c1ccc(-c2ccc3c(c2)CC[C@H](CNC[C@@H](O)c2cccc(Cl)c2F)O3)cc1 [Example 352]
